# Test results as given in ChEMBL document CHEMBL1135603, “Modeling of binding modes and inhibition mechanism of some natural ligands of farnesyl transferase using molecular docking” (J Med Chem, 2002).
# Assays:
# [1] = target: Protein farnesyltransferase (Rattus norvegicus, UniProt Q02293+Q04631); assay: Inhibition of Farnesyltransferase; assay type: protein-complex assay
# [2] = Partition coefficient (logP); assay type: physicochemical; settings: octanol/water
SMILES,IC50 [1],logP [2]
CC(C)CCCC(C)C1CCC2C3C(CC[C@]12C)[C@@](C)(CCC(=O)O)C(=O)C[C@@H]3C (some centres not stated),900 nM,
CC(C)CCCC(C)C1CCC2C3CCC(=O)[C@](C)(C[C@@H](CC(=O)O)C(=O)O)C3CC[C@]12C (some centres not stated),190 nM,
CC(=O)O[C@H]1CC[C@]2(C=O)[C@H](CC[C@@]3(C)[C@H]2C=C(C)[C@@]2(C)C(O)=C(C)C(=O)[C@]23C(=O)O)C1(C)C [ANDRASTATIN A],24900 nM,1.7
CC(=O)O[C@H]1CC[C@]2(CO)[C@H](CC[C@@]3(C)[C@H]2C=C(C)[C@@]2(C)C(O)=C(C)C(=O)[C@]23C(=O)O)C1(C)C [ANDRASTATIN B],47100 nM,1.6
CC(=O)O[C@H]1CC[C@]2(C)[C@H](CC[C@@]3(C)[C@H]2C=C(C)[C@@]2(C)C(O)=C(C)C(=O)[C@]23C(=O)O)C1(C)C [ANDRASTATIN C],13300 nM,2.7
C=C1C(=O)O[C@@H]2[C@H]3C[C@@]4(C)C=CC3(CC43C(=O)O[C@@H]4C5C(C)=CC(=O)C5=C(C)C[C@H](CC(=O)CC(C)C)C43)[C@](C)(O)CC[C@@H]12 (some centres not stated) [ARTEMINOLIDE],360 nM,1.8
COC(=O)C1=CC(CO)=COc2oc3cccc(O)c3c(=O)c21 [FUSIDIENOL],300 nM,1.8
CC(C)=CCC/C(C)=C/CC/C(C)=C/CC/C(=C\C(=O)O)C(=O)O [SCHIZOSTATIN E],,1.3
CC(C)=CCC/C(C)=C/CC/C(C)=C/CC/C(=C/C(=O)O)C(=O)O [SCHIZOSTATIN Z],300000 nM,1.4
C=C(CC[C@]12O[C@H](C(=O)O)[C@@](O)(C(=O)O)[C@](C(=O)O)(O1)[C@H](OC(=O)/C=C/[C@@H](C)C[C@@H](C)CC)[C@H]2O)[C@@H](OC(C)=O)[C@H](C)Cc1ccccc1 [ZARAGOZIC ACIDS A],12 nM,2
